From patent publication EP1077981B1, “NOVEL CEPHALOSPORIN COMPOUNDS, PROCESSES FOR PREPARATION THEREOF AND ANTIMICROBIAL COMPOSITIONS CONTAINING THE SAME” (LG CHEMICAL LIMITED, priority 1998, dated 1999)
Converted amounts (≈) assume the structure as drawn. Where two headings read alike, the source gives them in different places.

Assays:
Test in all cases: MIC against standard strains (agar dilution)
Type in all cases: cell-based
Escherichia coli 3190Y = system: Escherichia coli 3190Y
Method: (§1) Test example 1: Measurement of Minimum Inhibitory Concentration (MIC)
(§2) Specifically, test compounds were diluted by 2-fold dilution method and dispersed in Mueller-Hinton agar medium and then, 2µℓ of test strains were inoculated at a concentration of 10^7 cfu(colony forming unit)/mℓ on the medium and incubated for 20 hours at 37°C.

[1] = system: Serratia marcescens 1826E; settings: Serratia marcescens 1826E; Mueller-Hinton agar, 20 hours at 37°C; read-out: MIC
Method: as §1, §2

Enterobacter cloacae P99 = settings: Enterobacter cloacae P99; Mueller-Hinton agar, 20 hours at 37°C; read-out: MIC
Method: as §1, §2

E. coli = settings: Escherichia coli, Mueller-Hinton agar, 10^7 cfu/mℓ, 20 hours at 37°C
Method: as §1, §2

[2] = system: Enterobacter cloacae IND+VE 1194E; settings: Enterobacter cloacae IND+VE 1194E; Mueller-Hinton agar, 20 hours at 37°C; read-out: MIC
Method: as §1, §2

[3] = system: Citrobacter diversus 2046E; settings: Citrobacter koseri; Citrobacter diversus 2046E; Mueller-Hinton agar, 20 hours at 37°C; read-out: MIC
Method: as §1, §2

[4] = system: Staphylococcus aureus 6538p; settings: Staphylococcus aureus 6538p; Mueller-Hinton agar, 20 hours at 37°C; read-out: MIC
Method: as §1, §2

[5] = system: Moraxella catarrhalis C2431; settings: Moraxella catarrhalis C2431; Mueller-Hinton agar, 20 hours at 37°C; read-out: MIC
Method: as §1, §2

[6] = system: Klebsiella pneumoniae 2011E; settings: Klebsiella pneumoniae 2011E; Mueller-Hinton agar, 20 hours at 37°C; read-out: MIC
Method: as §1, §2

S. pneumoniae = settings: Streptococcus pneumoniae, Mueller-Hinton agar, 10^7 cfu/mℓ, 20 hours at 37°C
Method: as §1, §2

[7] = system: Staphylococcus aureus giorgio; settings: Staphylococcus aureus giorgio; Mueller-Hinton agar, 20 hours at 37°C; read-out: MIC
Method: as §1, §2

[8] = system: Pseudomonas aeruginosa 6065Y; settings: Pseudomonas aeruginosa 6065Y; Mueller-Hinton agar, 20 hours at 37°C; read-out: MIC
Method: as §1, §2

[9] = system: Citrobacter freundii 8090; settings: Citrobacter freundii 8090; Mueller-Hinton agar, 20 hours at 37°C; read-out: MIC
Method: as §1, §2

[10] = system: Escherichia coli TEM3 3455E; settings: TEM33455E, 20 h
Method: as §1, §2

Escherichia coli 10536 = settings: Escherichia coli 10536; Mueller-Hinton agar, 20 hours at 37°C; read-out: MIC
Method: as §1, §2

[11] = system: Moraxella catarrhalis 25240; settings: Moraxella catarrhalis 25240; Mueller-Hinton agar, 20 hours at 37°C; read-out: MIC
Method: as §1, §2

[12] = system: Escherichia coli TEM9 2639E; settings: TEM92639E; Escherichia coli TEM9 2639E; Mueller-Hinton agar, 20 hours at 37°C; read-out: MIC
Method: as §1, §2

S. aureus = settings: Staphylococcus aureus, Mueller-Hinton agar, 10^7 cfu/mℓ, 20 hours at 37°C
Method: as §1, §2

[13] = system: Klebsiella aerogenes SHV-1 1976E
Method: as §1, §2

Staphylococcus aureus 77 = settings: Staphylococcus aureus 77; Mueller-Hinton agar, 20 hours at 37°C; read-out: MIC
Method: as §1, §2

[14] = system: Enterococcus faecalis 29212; settings: Enterococcus faecalis 29212; Mueller-Hinton agar, 20 hours at 37°C; read-out: MIC
Method: as §1, §2

[15] = system: Morganella morganii 1375E; settings: Morganella morganii 1375E; Mueller-Hinton agar, 20 hours at 37°C; read-out: MIC
Method: as §1, §2

P. vulgaris = settings: Proteus vulgaris, Mueller-Hinton agar, 10^7 cfu/mℓ, 20 hours at 37°C
Method: as §1, §2

[16] = system: Pseudomonas aeruginosa 1912E; settings: Pseudomonas aeruginosa 1912E; Mueller-Hinton agar, 20 hours at 37°C; read-out: MIC
Method: as §1, §2

[17] = system: Staphylococcus epidermidi 887E; settings: Staphylococcus epidermidi 887E; Mueller-Hinton agar, 20 hours at 37°C; read-out: MIC
Method: as §1, §2

[18] = system: Staphylococcus aureus 241; settings: Staphylococcus aureus 241; Mueller-Hinton agar, 20 hours at 37°C; read-out: MIC
Method: as §1, §2

Escherichia coli 851E = system: Escherichia coli 851E
Method: as §1, §2

[19] = system: Escherichia coli TEM1 1193E; settings: TEM11193E, 20 h
Method: as §1, §2

[20] = system: Acinetobacter calcoaceticu 15473; settings: Acinetobacter calcoaceticu 15473; Mueller-Hinton agar, 20 hours at 37°C; read-out: MIC
Method: as §1, §2

Proteus vulgaris 6059 = settings: Proteus vulgaris 6059; Mueller-Hinton agar, 20 hours at 37°C; read-out: MIC
Method: as §1, §2

[21] = system: Salmonella typhimurium 14028; settings: Salmonella enterica; Salmonella typhimurium 14028; Mueller-Hinton agar, 20 hours at 37°C; read-out: MIC
Method: as §1, §2

[22] = system: Klebsiella aerogenes K1+ 1082E; settings: Klebsiella aerogenes K1+ 1082E; Mueller-Hinton agar, 20 hours at 37°C; read-out: MIC
Method: as §1, §2

H. influenzae = settings: Haemophilus influenzae; H. influenzae; Mueller-Hinton agar, 10^7 cfu/mℓ, 20 hours at 37°C; read-out: MIC
Method: as §1, §2

Compound	MIC [1] [µg/mL]	MIC (Enterobacter cloacae P99) [µg/mL]	MIC [2] [µg/mL]	MIC [3] [µg/mL]	MIC [4] [µg/mL]	MIC [5] [µg/mL]	MIC [6] [µg/mL]	MIC [7] [µg/mL]	MIC [8] [µg/mL]	MIC [9] [µg/mL]	MIC [10] [µg/mL]	MIC (Escherichia coli 10536) [µg/mL]	MIC [11] [µg/mL]	MIC [12] [µg/mL]	MIC (Staphylococcus aureus 77) [µg/mL]	MIC [14] [µg/mL]	MIC [15] [µg/mL]	MIC [16] [µg/mL]	MIC [17] [µg/mL]	MIC [18] [µg/mL]	further results
CC(C)(O/N=C(\C(=O)N[C@@H]1C(=O)N2C(C(=O)[O-])=C(C[n+]3ccccc3)CS[C@H]12)c1csc(N)n1)C(=O)O [Ceftazidime, reference compound]	0.25 (≈ 0.457 µM)	32 (≈ 58.5 µM)	0.5 (≈ 0.915 µM)	0.25 (≈ 0.457 µM)	16 (≈ 29.3 µM)	0.031 (≈ 0.0567 µM)	0.5 (≈ 0.915 µM)	4 (≈ 7.32 µM)	32 (≈ 58.5 µM)	0.13 (≈ 0.238 µM)	8 (≈ 14.6 µM)	0.063 (≈ 0.115 µM)	0.016 (≈ 0.0293 µM)	> 128	32 (≈ 58.5 µM)	> 128	0.063 (≈ 0.115 µM)	1 (≈ 1.83 µM)	> 128	> 128	MIC (Escherichia coli 3190Y; Escherichia coli 3190Y, Mueller-Hinton agar, 20 hours at 37°C, read-out: MIC): 0.031 µg/mL (≈ 0.0567 µM); MIC (E. coli): 0.031 µg/mL (≈ 0.0567 µM); MIC (S. pneumoniae): 8 µg/mL (≈ 14.6 µM); MIC (S. aureus): 4 µg/mL (≈ 7.32 µM); MIC ([13]; SHV11976E, Klebsiella aerogenes SHV-1 1976E, Mueller-Hinton agar, 20 hours at 37°C, read-out: MIC): 0.25 µg/mL (≈ 0.457 µM); MIC (P. vulgaris): 0.031 µg/mL (≈ 0.0567 µM); MIC (Escherichia coli 851E; Escherichia coli 851E, Mueller-Hinton agar, 20 hours at 37°C, read-out: MIC): 0.063 µg/mL (≈ 0.115 µM); MIC [19]: 0.13 µg/mL (≈ 0.238 µM); MIC [20]: 2 µg/mL (≈ 3.66 µM); MIC (Proteus vulgaris 6059): 0.031 µg/mL (≈ 0.0567 µM); MIC [21]: 0.25 µg/mL (≈ 0.457 µM); MIC [22]: 0.25 µg/mL (≈ 0.457 µM); MIC (H. influenzae): 0.063 µg/mL (≈ 0.115 µM)
Nc1cc(SC2=C(C(=O)O)N3C(=O)C(NC(=O)/C(=N\O)c4csc(N)n4)C3SC2)nc(N)n1 (stereo not shown) [compound 26, 7-[(Z)-2-(2-amino-thiazol-4-yl)-2-hydroxyimino-acetylamino]-3-(2,6-diamino-pyrimidin-4-ylsulfanyl)-8-oxo-5-thia-1-azabicyclo[4,2,0]oct-2-ene-2-carboxylic acid]	64 (≈ 126 µM)	> 64	> 64	> 64	0.5 (≈ 0.981 µM)	0.016 (≈ 0.0314 µM)	1 (≈ 1.96 µM)	0.25 (≈ 0.491 µM)	> 64	8 (≈ 15.7 µM)	64 (≈ 126 µM)	0.063 (≈ 0.124 µM)	≤ 0.008	32 (≈ 62.8 µM)	2 (≈ 3.92 µM)	16 (≈ 31.4 µM)	0.25 (≈ 0.491 µM)	> 64	2 (≈ 3.92 µM)	8 (≈ 15.7 µM)	MIC (Escherichia coli 3190Y; Escherichia coli, 3190Y, 20 h): 0.031 µg/mL (≈ 0.0608 µM); MIC ([13]; Klebsiella aerogenes, 20 h): 0.5 µg/mL (≈ 0.981 µM); MIC (Escherichia coli 851E; Escherichia coli, 851E, 20 h): 0.063 µg/mL (≈ 0.124 µM); MIC [19]: 0.5 µg/mL (≈ 0.981 µM); MIC [20]: 32 µg/mL (≈ 62.8 µM); MIC (Proteus vulgaris 6059): 0.031 µg/mL (≈ 0.0608 µM); MIC [21]: 0.13 µg/mL (≈ 0.255 µM); MIC [22]: > 64 µg/mL
